Data reported in patent US9139615B2, “High-affinity, dimeric inhibitors of PSD-95 as efficient neuroprotectants against ischemic brain damage and for treatment of pain” (University of Copenhagen, priority 2011, dated 2015).
Where no end group is shown, it is not given here.

Assays:
[1] = Blood-brain barrier permeability of fluorescent analogues; assay type: in vivo, mice; conditions: mouse, in vivo, iv
Procedure: VI.ii. Blood-brain Barrier Permeability. […] After injection of the compounds, the mice are perfused with paraformaldehyde and the brains are carefully removed, post-fixed in paraformaldehyde, processed into coronal sections, and quantified for fluorescence (Example 8).
The fluorescent ligands were injected intravenously (3 nmol/g) and the location of the ligands was detected by fluorescence microscopy of coronal brain slices (n=8) mice, was evaluated 2 hours after injection. Two sections of the brain, prior to and two after the anterior commissure (n=5), were selected for BBB permeability analysis. The anterior commissure (Bregma: −0.3) was used as a fix point in the brain in order to analyse anatomically identical brain sections. The intensity of the 5-FAM fluorophore was measured semi-quantitatively using a fluorescence microscopy system (Olympus System Microscope model BX-51, Denmark) with a 10× objective (Olympus 10×/0.15 UPlanApo) connected to a high-resolution microscope digital camera (Olympus model DP70), which transferred images to an image-capturing software (Image Pro Plus software). All images were taken using the same microscope settings and with constant camera exposure time. Intensities were quantified using the ImageJ software.
5-FAM-labeled derivative of Tat-NR2B9c is designated MS23. After injection of the compounds, the mice are perfused with paraformaldehyde and the brains are carefully removed, post-fixed in paraformaldehyde, processed into coronal sections, and quantified for fluorescence.
C57BL/6 mice with 6 hour post-surgical survival time were euthanized by cervical dislocation. C57BL/6 mice with 48 hour post-surgical survival were anesthetized with an overdosed of pentobarbital (the pharmacy of the Faculty of Life Sciences, University of Copenhagen, Denmark) in order to collect blood and tissue samples. All brains were carefully removed, frozen in gaseous CO2 and cut into 6 series of 30 μm coronal cryostat sections and stored at −80° C. until further use. C57BL/6J mice used to investigate the blood-brain barrier (BBB) permeability of AB143, AB145, AB148, and MS23 were deeply anesthetized and perfused through the left ventricle, using 10 ml chilled Soerensens phosphate buffer (SB) ([…], 125 mM Na2HPO4, pH 7.4) followed by 20 mL SB containing 4% paraformaldehyde (PFA). The brains were carefully removed and post-fixed in 4% PFA for 1 hour followed by immersion in SB containing 20% sucrose over night. The brains were frozen on gaseous CO2 and processed into 16 μm coronal cryostat sections.

[2] = Human blood plasma stability assay; assay type: in vitro ADME; conditions: human, plasma; 0.25 mM, 37° C., in vitro; read-out: half-life (T1/2) in human blood plasma
Procedure: Ligands (dimeric PSD-95 inhibitors) for the PDZ domain of PSD-95 were dissolved in human blood plasma (270 μL; 3H Biomedical, Sweden, cat no 1300-1-P50) to a concentration of 0.25 mM (30 μL, of 2.5 mM) and incubated at 37° C. Aliquots (30 μL) were removed at various time intervals (e.g. 0, 5, 10, 20, 40, 80, 160, 320, 960, 1280, 2550, 4560 and 7240 min) and quenched with 60 μL, trichloroacetic acid (aq., 5%). The aliquots were vortexed, and incubated 15 min, at 4° C. prior to centrifugation at 18,000 g for 2 min. The supernatants were analyzed by analytical RP-HPLC (UV218) to quantify compound relative to time zero, and also evaluated qualitatively by ESI-LC/MS in order to identify the compound (m/z) in the sample. Procaine (positive control) and procainamide (negative control) were investigated at 50 μM to validate the procedure. Ligand recoveries following the precipitation procedure were between 85-95%.

[3] = Physiological status of pMCAO mice (blood values, body weight, temperature, survival); assay type: in vivo; conditions: mouse, in vivo
Procedure: The physiological status of the mice was carefully monitored prior to and during pMCAO surgery in order to exclude the observed effects of treatment with dimeric PSD-95 inhibitors being due to secondary conditions (e.g. disease-related) resulting from the experimental procedure.
9.10 Body weight monitoring: The body weight of each mouse was registered during pre-training, before surgery, and at 24 and 48 hours after surgery and no differences were seen between the treatment groups (FIG. 13).
9.11 Temperature monitoring: The rectal temperature of the mouse was continuously measured using a thermocoupled probe connected to a Model Bat 12 unit (Physitemp). The temperature was measured prior to and 30 min after pMCAO in addition to 30 min and 2.5 hours after i.v. injection, i.e. 1 and 3 hours after pMCAO.
9.12 Blood gas analysis: One samples of venous blood was taken for blood gas analysis of PO2/PCO2 electrolytes, glucose, lactate, and hematocrit, 30 min after compound administration (1 hour after pMCAO). A capillary heparin coated tube was inserted along the inner corner of eye and turned until it penetrated the conjunctiva. A sample of blood (150 μl) was collected and stored on ice until gas analysis using the GEM Premier 300 blood gas instrument (Instrumentation Laboratory) Quality controls (QC ContrlIL9) were purchased from IL Sensor Systems. Also, no differences were detected in blood gas parameters (PO2/PCO2, pH, electrolytes, glu/lac), which were similar between the groups and within normal range, when compared to unmanipulated control mice (Table 4).

YGRKKRRQRRRKLSSIESDV [Tat-NR2B9c, reference compound]
entry into brain, fluorescence microscopy of coronal brain slices [1]: enter the brain
half-life at 0.25 mM [2]: 18.3 ± 5 h
Hct [3]: 40.8 ± 0.6%
[Ca2+] [3]: 1.32 ± 0.01 mmol/L
[K+] [3]: 5.1 ± 0.13 mmol/L
[Lactate] [3]: 0.87 ± 0.07 mmol/L
[Na+] [3]: 147 ± 0.3 mmol/L
pCO2 [3]: 106 ± 2.4 mmHg
pO2 [3]: 55.2 ± 2.6 mmHg
